# No end group written: not given here.
# Key:
# HeLa cells [1] = assay: Cellular uptake by flow cytometry; format: cell-based
# Protocol: (§1) HeLa (90,000), MDA‐MB‐231 (120,000), and HFF‐1 (125,000) cells were seeded into a 24‐well plate. Cells were treated with the desired concentration of CF‐labeled peptide diluted in the appropriate serum‐free medium for 30 min at 37 °C and 5% CO2. Afterward, cells were washed once with PBS, detached from the plate using indicator‐free trypsin/EDTA and resuspended in indicator‐free culture medium. The cell mixture was measured on the Guava easyCyte flow cytometer (Merck) using the GRN‐B (520/30) detector.
# CMA was synthesized and kindly provided by Azizi et al.^[ [33] ^] Cells were either treated with 20 μM CMA diluted in serum‐free media or 0.1% DMSO diluted in serum‐free media for 6 h at 37 °C with 5% CO2. Next, cells were washed once with serum‐free medium and 5 μM CF‐labeled peptides diluted in serum‐free medium were incubated for 30 min. Control cells were only treated with dimethylsulfoxide (DMSO) or 20 μM CMA.
# For the preincubation assay, cells were either treated with 5 μM DC‐2 diluted in serum‐free medium or only serum‐free medium for 30 min at 37 °C and 5% CO2. Afterward, cells were washed once with serum‐free medium and treated with 5 μM CF‐labeled DC‐2 for 30 min at 37 °C and 5% CO2.
# To block cell surface thiols, cells were incubated with either serum‐free medium or 1.2 mM 5,5′‐dithiobis‐(2‐nitrobenzoic acid) (Ellman's reagent, DTNB) diluted in serum‐free medium for 5 min. Next, untreated cells were treated with 1 μM of CF‐labeled DC‐2 or DC‐2dis diluted in serum‐free medium and DTNB‐pretreated cells with 1 μM of CF‐labeled DC‐2 or DC‐2dis and 1.2 mM DTNB in serum‐free medium for 30 min at 37 °C and 5% CO2 as described by Aubry et al.^[ [47] ^]
# MDA‐MB‐231 = assay: Cellular uptake by flow cytometry; format: cell-based; conditions: MDA‐MB‐231, 30 min, 5 μM CF‐labeled peptides, serum-free medium, 37 °C, n ≥ 3 (Figure 3E)
# Protocol: as §1
# HeLa cells [2] = assay: Live‐cell fluorescence imaging of peptide uptake; format: cell-based
# Protocol: HeLa (40,000), MDA‐MB‐231 (30,000), or HFF1 (55,000) cells were seeded into an 8‐well ibidi. Cells were treated for 30 min with 5 μM of CF‐labeled peptide diluted in the appropriate serum‐free media. The cell nuclei were stained with the Hoechst 33342 nuclear dye for the last 10 min of the total incubation time. Afterward, cells were washed three to four times using serum‐free medium and finally, medium containing FBS was added for the microscopy. Live fluorescence microscopy analyses were performed on the LSM 980 with Airyscan 2 Inverse Confocal Laser Scanning Microscope (Carl Zeiss) on a 63X Plan‐Apochromat oil objective (NA 1.4, Zeiss) at 37 °C and 5% CO2 or on the BZ‐X810 (Keyence) using a 60X Plan‐Apochromat oil objective (NA 1.4, Keyence). Images were cropped and processed using Fiji.
# Hela cells (15,000) were seeded into a 96-well plate. Cells were treated with suitable peptide concentrations diluted in the corresponding serum-free culture medium. After 1 h peptide incubation under standard growth conditions, the positive control was either directly treated with lysis solution or the supernatant was exchanged for serum-free culture medium and the plate was incubated for further 5 h under growing conditions. The CytoTox-ONE™ Reagent was added and incubated at RT for 10 minutes. Finally, the Stop Solution was added and the fluorescence was measured at 595 nm (λex = 550 nm) on an infinite M200 plate reader (Tecan) and normalized to the positive control cells.
# Red blood cells (RBCs) were washed three times in PBS by centrifug ing at 4 °C and 3,000 x g for 5 min and diluted to 5% in PBS. The desired peptide concentrations diluted in PBS were added into a 96-well plate. Next, 5% RBCs in PBS were added into the wells and incubated for 24 h at 37 °C and 5% CO2. As a positive control, RBCs were mixed with 10% Triton X-100 in PBS. […] Lastly, the absorption (λ=560 nm) was measured on the infinite M200 plate reader (Tecan). For the evaluation, the measured absorption of the Triton-X-100 treatment was set to a hemolysis rate […]
# MCF‐10 A breast spheroid = assay: Confocal time‐lapse imaging of spheroids; format: cell-based, human; conditions: 10‐day‐old MCF‐10 A spheroids, 10 μM CF‐labeled peptide, imaged every 45 s for 20 min, n ≥ 2 (Figure 7)
# Protocol: Spheroids from single MCF10‐A cells were generated for 10 days as described in ref. [66]. For further analyses, spheroids were isolated from EHS matrix through incubation in 2 mL ice‐cold cell recovery solution (BD Biosciences) for 30 min (4 °C). Next, spheroids were washed with fresh EGF‐free medium and individually picked under a stereo microscope for seeding onto 35 mm cell culture dishes with microscopic glass bottoms (Cover Slip, 24 × 24 mm, #1.5 HP, Menzel‐Gläser). Spheroids adhered to glass substrates for 15 min (RT) and were subsequently covered with 0.9 mL fresh EGF‐free growth medium.
# Live‐cell imaging was performed at 37 °C and 5% CO2 (cell incubator XL, Zeiss, Germany) with an inverse confocal laser scanning microscope (LSM880 with Airyscan detector) that used a 40x LD C‐Apochromat water immersion objective (NA 1.1, Zeiss). Before addition of peptides, control images were taken. Subsequently, peptide was added to a final concentration of 10 μM and spheroids immediately imaged every 45 s for 20 min. The observed plane was at the equatorial plane of a spheroid, where the diameter was largest. Images were taken with Fast Airyscan and subsequent processing using the ZEN 2.3 black software (Zeiss). Z‐stacks were taken right after the time series in 1 μm steps with the same microscopic settings.
substance,measurement,setting,value
"GLRKRLRKFRNKKMDHHCPW-NH2 [DC‐2, CPP sC18* fused to the DHHC motif derived from ZDHHC2/3/6/7/15/16/20]",effect of blocking cell surface thiols (DTNB) on cellular uptake,"HeLa cells [1]; 5 min 1.2 mM DTNB, then 1 μM CF‐labeled peptide with DTNB 30 min, flow cytometry, n = 3 (Figure S8C)",no significant difference
same,effect of pretreatment with unlabeled DC‐2 on peptide uptake,"HeLa cells [1]; 30 min 5 μM unlabeled DC‐2, then 30 min 5 μM CF‐DC‐2, flow cytometry, n = 3 (Figure S5E)",no significant difference in the quantity of peptide uptake
same,cellular uptake in medium lacking L‐cystine,"HeLa cells [1]; 30 min, 5 µM CF-DC-2, flow cytometry, n = 3 (Figure S8B)",slightly increased
same,cellular uptake (in words),"HeLa cells [1]; 30 min, 5 μM CF‐labeled peptides, serum-free medium, 37 °C, flow cytometry, n ≥ 3 (Figure 3D, 5C)",internalized to a higher extent compared to DC‐4
same,cellular uptake (in words),MDA‐MB‐231,internalized to a higher extent compared to DC‐4
same,time‐lapse cellular uptake,"HeLa cells [2]; 5 μM CF-DC-2, imaged every 10 sec for 30 min (Video 1)",rapid cellular uptake
same,intracellular uptake pattern,"HeLa cells [2]; 30 min, 5 μM CF‐labeled peptides, confocal laser scanning microscopy (Figure 3G)",diffuse cytosolic pattern
same,infiltration of basement membrane (BM)‐covered spheroids,MCF‐10 A breast spheroid,efficiently surpassed the BM and translocated into many cells

# Source: PMC12117998, “First Steps toward the Design of Peptides that Influence the Intracellular Palmitoylation Machinery” (Chembiochem, 2025)
